Source: patent publication US10202350B2, “MCT4 inhibitors for treating disease” (Vettore, LLC, priority 2015, dated 2019)

Experiments:
Assay type in all cases: cell-based
[1] = biological target: MCT1 (Homo sapiens (Human), UniProt P53985); assay: MCT1-mediated lactate transport in BT20 breast cancer cells; conditions: native MCT1, 10 mM L-lactate
Procedure: (§1) 10 μL of a 30 mM DMSO stock of BCECF-AM ester (Life Technologies) is added and the cells are incubated at 37° C. for 5 min. The cells are pelleted (300 g, 5 min), washed once with 1 mL Tyrode's Solution, pH 7.4, re-pelleted (300 g, 5 min), and resuspended in 1 mL Tyrode's Solution, pH 7.4.
(§2) 2.5 μL BCECF-loaded cells, along with either 10 μL DMSO or 100×compound in DMSO, are added to 937.5 μL of Tyrode's Solution in a quartz 1.0 mL cuvette (PerkinElmer, B0631116). […] After establishing baseline BCECF fluorescence (around 10-20 s), 50 μL of 1 M sodium L-lactate (Sigma-Aldrich) is added to the cuvette (final concentration: 50 mM) and rapidly mixed. The time-dependent decrease in BCECF fluorescence (490/440 ratio) may be fit to an exponential decay curve (Prism GraphPad) to determine the rate of lactate transport.
Assay 4: MCT1-Mediated Lactate Transport in BT20 Breast Cancer Cells.
Preparation of BCECF loaded cells are as described for Assay 1. Lactate transport assay is as described for Assay 1, except 10 mM L-lactate (rather than 50 mM) is added.

[2] = biological target: T1, MCT4 (Homo sapiens (Human), UniProt O15427); assay: MCT4-mediated lactate transport in NCI-H358 lung adenocarcinoma cells; conditions: native MCT4, 50 mM L-lactate
Procedure: as §1, with “Cells (˜7×10^6) are trypsinized (0.05% Trypsin-EDTA), pelleted (300 g, 5 min), and resuspended in 1 mL Tyrode's Solution, pH 7.4 (119 mM NaCl, 5 mM KCl, 25 mM HEPES, pH 7.4, 2 mM CaCl2, 2 mM MgCl2, 6 g/L glucose). 10” for “10”
2.5 μL BCECF-loaded cells, along with either 10 μL DMSO or 100×compound in DMSO, are added to 937.5 μL of Tyrode's Solution in a quartz 1.0 mL cuvette (PerkinElmer, B0631116). Fluorescence measurements are performed on a PerkinElmer LS55 fluorescence spectrometer with dual excitation wavelengths achieved using a filter wheel (FL Winlab program: Fast Filter; Excitation 490/440; Emission 535). After establishing baseline BCECF fluorescence (around 10-20 s), 50 μL of 1 M sodium L-lactate (Sigma-Aldrich) is added to the cuvette (final concentration: 50 mM) and rapidly mixed. The time-dependent decrease in BCECF fluorescence (490/440 ratio) may be fit to an exponential decay curve (Prism GraphPad) to determine the rate of lactate transport.
Assay 2: MCT4-Mediated Lactate Transport in NCI-H358 Lung Adenocarcinoma Cells.
NCI-H358 lung adenocarcinoma cells may be used to measure MCT4 activity in cells with high native levels of MCT4 and low levels of MCT1 and are known to those with skill in the art. Preparation of BCECF-loaded cells and lactate transport activity may be determined as described for Assay 1.

[3] = biological target: T1, MCT4; assay: Lactate transport in MCT4-expressing MDA-MB-453 breast cancer cells (BCECF); conditions: MDA-MB-453 cells stably expressing MCT4; 50 mM L-lactate
Procedure: Assay 1: Lactate Transport in MCT4-Expressing MDA-MB-453 Breast Cancer Cells. […] The following is an exemplary procedure for assaying MCT4 activity of the compounds of Formula (I). Preparing BCECF-Loaded Cells: […] The cells are pelleted (300 g, 5 min), washed once with 1 mL Tyrode's Solution, pH 7.4, re-pelleted (300 g, 5 min), and resuspended in 1 mL Tyrode's Solution, pH 7.4. Lactate Transport Assay: […] Fluorescence measurements are performed on a PerkinElmer LS55 fluorescence spectrometer with dual excitation wavelengths achieved using a filter wheel (FL Winlab program: Fast Filter; […] Emission 535). After establishing baseline BCECF fluorescence (around 10-20 s), 50 μL of 1 M sodium L-lactate (Sigma-Aldrich) is added to the cuvette (final concentration: 50 mM) and rapidly mixed.

[4] = biological target: T1, MCT4; assay: MCT4-mediated lactate transport in MDA-MB-231 breast cancer cells; conditions: MDA-MB-231 cells, native MCT4; 50 mM L-lactate
Procedure: as §1, §2
Preparation of BCECF-loaded cells and lactate transport activity may be determined as described for Assay 1.

MCT1, sequence (P53985 whole entry): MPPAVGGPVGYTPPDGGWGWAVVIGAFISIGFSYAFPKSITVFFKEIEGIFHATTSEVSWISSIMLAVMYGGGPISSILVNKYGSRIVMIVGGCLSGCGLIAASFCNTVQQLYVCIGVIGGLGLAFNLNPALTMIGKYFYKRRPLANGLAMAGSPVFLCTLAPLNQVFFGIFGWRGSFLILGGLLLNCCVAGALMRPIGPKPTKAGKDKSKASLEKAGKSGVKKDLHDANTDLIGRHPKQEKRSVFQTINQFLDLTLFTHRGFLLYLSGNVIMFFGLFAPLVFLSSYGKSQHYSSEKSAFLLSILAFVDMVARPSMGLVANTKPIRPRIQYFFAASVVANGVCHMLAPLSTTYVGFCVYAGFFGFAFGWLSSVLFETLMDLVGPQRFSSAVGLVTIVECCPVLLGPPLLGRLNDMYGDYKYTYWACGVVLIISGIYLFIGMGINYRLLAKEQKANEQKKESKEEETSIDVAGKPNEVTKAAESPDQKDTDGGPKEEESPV
MCT1, sequence (P35613 140-385 partner): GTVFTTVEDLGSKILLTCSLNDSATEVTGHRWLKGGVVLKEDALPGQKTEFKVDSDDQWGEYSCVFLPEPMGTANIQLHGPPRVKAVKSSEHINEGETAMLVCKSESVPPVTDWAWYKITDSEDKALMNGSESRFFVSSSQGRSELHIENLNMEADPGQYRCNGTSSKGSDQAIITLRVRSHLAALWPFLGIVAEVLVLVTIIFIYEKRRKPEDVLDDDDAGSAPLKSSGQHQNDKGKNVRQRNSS
T1 sequence (O15427 whole entry, looked up): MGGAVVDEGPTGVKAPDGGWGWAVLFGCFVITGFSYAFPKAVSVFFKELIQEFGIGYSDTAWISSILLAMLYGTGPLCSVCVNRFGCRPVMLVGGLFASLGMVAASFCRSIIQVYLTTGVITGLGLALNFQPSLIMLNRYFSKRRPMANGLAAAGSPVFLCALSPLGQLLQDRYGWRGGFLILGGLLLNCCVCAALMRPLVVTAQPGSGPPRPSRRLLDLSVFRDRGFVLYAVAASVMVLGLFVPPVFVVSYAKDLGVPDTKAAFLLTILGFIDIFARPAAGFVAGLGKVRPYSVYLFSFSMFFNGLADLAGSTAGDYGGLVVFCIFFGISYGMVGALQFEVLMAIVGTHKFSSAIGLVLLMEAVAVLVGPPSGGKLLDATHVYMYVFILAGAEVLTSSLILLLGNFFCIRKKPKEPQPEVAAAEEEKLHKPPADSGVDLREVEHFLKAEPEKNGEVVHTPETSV
T1 sequence (P35613 whole entry partner, looked up): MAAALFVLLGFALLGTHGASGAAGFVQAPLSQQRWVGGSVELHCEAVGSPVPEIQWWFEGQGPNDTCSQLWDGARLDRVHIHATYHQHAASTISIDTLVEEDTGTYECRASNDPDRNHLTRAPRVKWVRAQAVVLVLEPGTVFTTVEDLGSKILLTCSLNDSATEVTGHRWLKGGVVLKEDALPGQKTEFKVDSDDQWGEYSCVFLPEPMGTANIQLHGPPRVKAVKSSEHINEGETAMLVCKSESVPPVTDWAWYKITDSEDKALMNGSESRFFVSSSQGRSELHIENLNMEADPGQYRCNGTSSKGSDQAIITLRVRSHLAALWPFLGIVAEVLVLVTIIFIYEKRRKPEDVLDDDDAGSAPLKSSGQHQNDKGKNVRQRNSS

## CC(C)(OCc1cc(-c2ccccc2)n(Cc2cccc(Cl)c2)n1)C(=O)O [Example 1, 2-[[1-[(3-Chlorophenyl)methyl]-5-phenyl-pyrazol-3-yl]methoxy]-2-methyl-propanoic Acid]
[1]; Table 2
  IC50: 50000 nM
[2]
  IC50: 140 nM
[3]
  IC50: 340 nM

## CC(C)(OCc1cc(-c2ccc(Cl)cc2)n(Cc2ccc(Cl)cc2)n1)C(=O)O [Example 2]
[1]; Table 2
  IC50: 29000 nM
[2]
  IC50: 240 nM
[3]
  IC50: 450 nM

## CC(C)(OCc1cc(-c2ccc(Cl)cc2)n(Cc2ccccc2Cl)n1)C(=O)O [Example 3, 2-[[5-(4-Chlorophenyl)-1-[(2-chlorophenyl)methyl]pyrazol-3-yl]methoxy]-2-methyl-propanoic acid]
[1]; Table 2
  IC50: 25000 nM
[2]
  IC50: 60 nM
[3]
  IC50: 72 nM

## CC(C)(OCc1cc(-c2ccc(F)cc2)n(Cc2ccccc2Cl)n1)C(=O)O [Example 4, 2-[[1-[(2-Chlorophenyl)methyl]-5-(4-fluorophenyl)pyrazol-3-yl]methoxy]-2-methyl-propanoic acid]
[1]; Table 2
  IC50: 33000 nM
[2]
  IC50: 54 nM
[3]
  IC50: 68 nM

## CC(C)(OCc1cc(-c2ccc(Cl)cc2)n(Cc2ccc(Cl)cc2Cl)n1)C(=O)O [Example 5, 2-[[5-(4-Chlorophenyl)-1-[(2,4-dichlorophenyl)methyl]pyrazol-3-yl]methoxy]-2-methyl-propanoic acid]
[1]; Table 2
  IC50: 1800 nM
[2]
  IC50: 63 nM
[3]
  IC50: 160 nM

## O=C(O)COCc1cc(-c2ccc(Cl)cc2)n(Cc2ccc(Cl)cc2Cl)n1 [Example 6, 2-[[5-(4-Chlorophenyl)-1-[(2,4-dichlorophenyl)methyl]pyrazol-3-yl]methoxy]acetic acid]
[1]; Table 2
  IC50: 6600 nM
[2]
  IC50: 4600 nM
[3]
  IC50: 2400 nM

## CC(C)(OCc1cc(-c2ccc(Cl)cc2)n(Cc2ccccc2)n1)C(=O)O [Example 7, 2-[[1-Benzyl-5-(4-Chlorophenyl)pyrazol-3-yl]methoxy]-2-methyl-propanoic acid]
[1]; Table 2
  IC50: 70000 nM
[2]
  IC50: 460 nM
[3]
  IC50: 720 nM

## CC(C)(OCc1cc(-c2ccccc2)n(Cc2ccccc2Cl)n1)C(=O)O [Example 8, 2-[[1-[(2-Chlorophenyl)methyl]-5-phenyl-pyrazol-3-yl]methoxy]-2-methyl-propanoic acid]
[1]; Table 2
  IC50: 46000 nM
[2]
  IC50: 81 nM
[3]
  IC50: 69 nM

## CC(C)(OCc1cc(-c2ccc(Cl)cc2)n(Cc2cccnc2)n1)C(=O)O [Example 23, 2-[[5-(4-Chlorophenyl)-1-(3-pyridylmethyl)pyrazol-3-yl]methoxy]-2-methyl-propanoic acid]
[2]
  IC50: 2100 nM
[3]
  IC50: 1500 nM

## COc1ccccc1Cn1nc(COC(C)(C)C(=O)O)cc1-c1cccc(OCC(C)C)c1 [Example 61, 2-([1-[(2-methoxyphenyl)methyl]-5-[3-(2-methylpropoxy)phenyl]-1H-pyrazol-3-yl]methoxy)-2-methylpropanoic acid]
[1]; Table 3
  IC50: 11000 nM
[4]
  IC50: 3.1 nM

## COc1cccc(Cn2nc(COC(C)(C)C(=O)O)cc2-c2cccc(OCC(C)C)c2)c1 [Example 62, 2-([1-[(3-methoxyphenyl)methyl]-5-[3-(2-methylpropoxy)phenyl]-1H-pyrazol-3-yl]methoxy)-2-methylpropanoic acid]
[1]; Table 3
  IC50: 27000 nM
[4]
  IC50: 33 nM

## COc1ccc(Cn2nc(COC(C)(C)C(=O)O)cc2-c2cccc(OCC(C)C)c2)cc1 [Example 63, 2-([1-[(4-methoxyphenyl)methyl]-5-[3-(2-methylpropoxy)phenyl]-1H-pyrazol-3-yl]methoxy)-2-methylpropanoic acid]
[1]; Table 3
  IC50: 17000 nM
[4]
  IC50: 37 nM

## CCC(CC)(OCc1cc(-c2cccc(OC)c2)n(Cc2ccccc2Cl)n1)C(=O)O [Example 67]
[1]; Table 3
  IC50: 17000 nM
[4]
  IC50: 11 nM

## CC(C)C(=O)Nc1cccc(-c2cc(COC(C)(C)C(=O)O)nn2Cc2ccccc2Cl)c1 [Example 69, 2-([1-[(2-Chlorophenyl)methyl]-5-[3-(2-methylpropanamido)phenyl]-1H-pyrazol-3-yl]methoxy)-2-methylpropanoic Acid]
[1]; Table 3
  IC50: > 100000 nM
[4]
  IC50: 5800 nM

## CC(C)(OCc1cc(-c2cccc(S(C)(=O)=O)c2)n(Cc2ccccc2Cl)n1)C(=O)O [Example 70, 2-([1-[(2-chlorophenyl)methyl]-5-(3-methanesulfonylphenyl)-1H-pyrazol-3-yl]methoxy)-2-methylpropanoic Acid]
[1]; Table 3
  IC50: > 100000 nM
[4]
  IC50: 9300 nM

## CC(C)(OCc1cc(-c2cccc(NS(C)(=O)=O)c2)n(Cc2ccccc2Cl)n1)C(=O)O [Example 71, 2-([1-[(2-chlorophenyl)methyl]-5-(3-methanesulfonamidophenyl)-1H-pyrazol-3-yl]methoxy)-2-methylpropanoic Acid]
[1]; Table 3
  IC50: 64000 nM
[4]
  IC50: 34000 nM

## CNc1cccc(-c2cc(COC(C)(C)C(=O)O)nn2Cc2ccccc2Cl)c1 [Example 72, 2-([1-[(2-Chlorophenyl)methyl]-5-[3-(methylamino)phenyl]-1H-pyrazol-3-yl]methoxy)-2-methylpropanoic Acid]
[1]; Table 3
  IC50: 45000 nM
[4]
  IC50: 220 nM

## CC(C)CNc1cccc(-c2cc(COC(C)(C)C(=O)O)nn2Cc2ccccc2Cl)c1 [Example 73, 2-([1-[(2-chlorophenyl)methyl]-5-[3-[(2-methylpropyl)amino]phenyl]-1H-pyrazol-3-yl]methoxy)-2-methylpropanoic Acid]
[1]; Table 3
  IC50: > 11000 nM
[4]
  IC50: 21 nM

## CC(C)NC(=O)c1cccc(-c2cc(COC(C)(C)C(=O)O)nn2Cc2ccccc2Cl)c1 [Example 74, 2-([1-[(o-Chlorophenyl)methyl]-5-[m-(isopropylamino)carbonylphenyl]-1H-pyrazol-3-yl]methoxy)-2-methylpropionic Acid]
[1]; Table 3
  IC50: > 100000 nM
[4]
  IC50: 6400 nM

## CC(C)(OCc1cc(Nc2ccccc2)n(Cc2ccccc2Cl)n1)C(=O)O [Example 75, 2-([1-[(2-chlorophenyl)methyl]-5-(phenylamino)-1H-pyrazol-3-yl]methoxy)-2-methylpropanoic Acid]
[1]; Table 3
  IC50: > 100000 nM
[4]
  IC50: 1700 nM

## CC(C)(OCc1cc(Oc2ccccc2)n(Cc2ccccc2Cl)n1)C(=O)O [Example 76, 2-([1-[(2-Chlorophenyl)methyl]-5-phenoxy-1H-pyrazol-3-yl]methoxy)-2-methylpropanoic Acid]
[1]; Table 3
  IC50: 38000 nM
[4]
  IC50: 400 nM

## CC(C)(OCc1cc(-c2cccc(O)c2)n(Cc2ccccc2Cl)n1)C(=O)O [Example 79, 2-[[1-[(2-Chlorophenyl)methyl]-5-(3-hydroxyphenyl)pyrazol-3-yl]methoxy]-2-methyl-propanoic Acid]
[1]; Table 3
  IC50: 15000 nM
[4]
  IC50: 59 nM

## COc1cccc(-c2cc(COC(C)(C)C(=O)NS(C)(=O)=O)nn2Cc2ccccc2Cl)c1 [Example 81, 2-[[1-[(2-chlorophenyl)methyl]-5-(3-methoxyphenyl)pyrazol-3-yl]methoxy]-2-methyl-N-methylsulfonyl-propanamide]
[1]; Table 3
  IC50: 6600 nM
[4]
  IC50: 6300 nM

## COC(=O)C(C)(C)OCc1cc(-c2cccc(OC)c2)n(Cc2ccccc2Cl)n1 [Example 82, Methyl 2-[[1-[(2-chlorophenyl)methyl]-5-(3-methoxyphenyl)pyrazol-3-yl]methoxy]-2-methyl-propanoate]
[1]; Table 3
  IC50: 16000 nM
[4]
  IC50: 460 nM
